From patent US20040038958A1, “Topical treatment of skin diseases” (priority 2002, published 2004)
Values joined by “and” are separate entries in the source; they are usually repeats but may differ in a detail not shown here. Identical values can stand only once. “Also recorded” adds a separate entry of the source.

Columns and labels:
[1] = system: sensitized Brown Norway rats; conditions: late phase airway reaction to antigen; Kuss et al., 2002; cited from earlier work
[2] = system: macrophage inflammatory protein 2; assay: MIP-2 in homogenized mouse ears after TDI challenge (ELISA); format: in vivo, BALB/c-mice
Method: (§1) One part of the collected ears was fixed in 4% formaldehyde for histological section and stained with haematoxylin-eosin with respect to dermal thickness and granulocyte accumulation. These parameters were measured in 10 fields at 40 times magnification. The remaining tissue was shock-frozen and stored in liquid nitrogen immediately after sampling. For the determination of biochemical parameters, the mice ears were homogenized under liquid nitrogen. The homogenates were taken in 200 μl RPMI 1640 medium and the protease inhibitor Pefabloc® (1 mmol) was added and the samples were mixed intensively. After centrifugation (10000 g, 10 min, 4° C.), the supernatant was collected and the protein content was determined. The samples were stored at −80° C. until the cytokines were determined. Interleukin (IL) 4, IL-6 and MIP-2 were measured in the samples by ELISA using commercially available kits according to manufacturers instructions.

interleukin 4 = assay: IL-4 in homogenized mouse ears after TDI challenge (ELISA); format: in vivo, BALB/c-mice
Method: as §1

[3] = 24 h after TDI challenge, AWD 12-281 3%, rechallenge
[4] = 24 h after TDI challenge, topical 2 h before challenge, AWD 12-281 1%, cilomilast 3%, diflorasone 0.05%
[5] = AWD 12-281 3%, cilomilast 3%, diflorasone 0.05%, 24 h after TDI challenge

O=C(Nc1c(Cl)cncc1Cl)C(=O)c1cn(Cc2ccc(F)cc2)c2ccc(O)cc12 [AWD 12-281, N-(3,5-Dichloro-4-pyridinyl)-2-[1-(4-fluoro-benzyl)-5-hydroxy-1 H-indol-3-yl]-2-oxoacetamide]
accumulation of eosinophils in bronchoalveolar lavage [1]: significantly reduced the accumulation of eosinophils | concentration of MIP-2 in mouse skin [2, 3]: diminished the increase of the MIP-2 concentration significantly | concentration of macrophage inflammatory protein 2 in homogenized mouse ears [2, 4]: reduced the increase slightly; also recorded: reduced this increase slightly | MIP-2, mean inhibition (%) of the TDI induced synthesis [2, 5]: 75% | MIP-2 ([2]; AWD 12-281 3%, homogenized mouse ears 24 h after TDI challenge (rechallenge), vehicle control 286 ± 39, mean ± s.e.): 72 ± 8 pg/400 µg protein | concentration of interleukin 4 in mouse skin (interleukin 4; [3]): inhibited the increase significantly | concentration of interleukin 4 in homogenized mouse ears (interleukin 4; [4]): reduced the increase slightly; also recorded: slight inhibitory effect | IL-4, mean inhibition (%) of the TDI induced synthesis (interleukin 4; [5]): 80% and 81% | IL-4 (interleukin 4; AWD 12-281 3%, homogenized mouse ears 24 h after TDI challenge (rechallenge), vehicle control 67 ± 2, mean ± s.e.): 12 ± 3 pg/400 µg protein
